From patent EP0700301B1, “PEPTIDES AND COMPOUNDS THAT BIND TO ELAM-1” (AFFYMAX TECHNOLOGIES N.V., priority 1993, dated 1994)
Ends that are not written are not given here.

Biological target: T1, immobilized ELAM-1 (Homo sapiens, UniProt P16581)
T1 construct: truncated form comprising the complete extracellular domain (amino acids 1 through 554); made in house; released with phospholipase C
T1 sequence (P16581 22-554): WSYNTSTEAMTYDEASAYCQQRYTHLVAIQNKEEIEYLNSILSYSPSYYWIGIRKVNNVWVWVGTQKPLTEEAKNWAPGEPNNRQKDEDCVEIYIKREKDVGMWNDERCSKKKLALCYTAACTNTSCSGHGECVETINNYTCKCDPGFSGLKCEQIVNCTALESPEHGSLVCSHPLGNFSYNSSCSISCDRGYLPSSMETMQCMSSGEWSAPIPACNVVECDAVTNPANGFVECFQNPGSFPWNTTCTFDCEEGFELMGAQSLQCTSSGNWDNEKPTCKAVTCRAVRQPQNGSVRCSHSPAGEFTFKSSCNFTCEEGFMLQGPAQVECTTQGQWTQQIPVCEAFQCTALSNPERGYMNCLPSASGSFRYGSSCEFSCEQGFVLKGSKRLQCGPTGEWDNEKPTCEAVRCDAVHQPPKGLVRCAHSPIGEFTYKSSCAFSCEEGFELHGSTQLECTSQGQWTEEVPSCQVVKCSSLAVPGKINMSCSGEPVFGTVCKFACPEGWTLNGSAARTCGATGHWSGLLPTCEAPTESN
Assay: cell-based
Type: cell-based
Description: By comparing test wells with control wells (no receptor), one can determine whether a peptide binds to ELAM-1 specifically. Peptides found to bind specifically to ELAM-1 were then synthesized as the free peptide (no phage) and tested in an HL60 cell adhesion competition assay. The competition assay was carried out similarly to the ELISA, except that labeled HL60 cells were added in addition to the peptide (the control wells were typically of at least two types: (1) no immobilized ELAM-1; and (2) no peptide; see the Examples). Peptides that block the binding of labeled HL60 cells ELAM-1 are preferred compounds of the invention. […] The assay requires HL60 cells labeled with tritiated thymidine. To label the cells, about 10 million HL60 cells are collected by centrifugation (2500 RPM for 3 minutes) and resuspended in 15 mL of DMEM/F12 plus 5% fetal calf serum containing 2 μCi/mL of tritiated thymidine (Amersham). The cells are then placed in a T75 flask and incubated at 37°C for 24 hours. The cells are then collected by centrifugation, washed twice with RPMI/HEPES/0.1% FCS, and resuspended in the same solution at a concentration of about one to two million cells per mL. […] After this incubation, aliquots were removed from each well and placed in scintillation vials; scintillation fluid was added to each vial; and the radioactivity in each aliquot was quantitated by LS counting. […]

blocking of HL60 cell binding that occurred in the absence of added compound (200000.0): over 80%
inhibition at 50 µM (HL-60, at a concentration of 50 µM, tested from 0.5 to 100 µM, Figure 2, read-out: inhibition of binding of HL60 cells): ~50%
Sequence: HITWDQLWNVMN
